Experimental data: PubChem BioAssay AID256 (DTP/NCI, 2004)
Several values for one entry are separate records, joined by “and”; a condition that tells them apart may be missing. Equal values may be shown once. Toxic doses and inconclusive results are not listed.

System: CD2F1 mice, L1210 leukemia ip, survival T/C
Assay: NCI In Vivo Anticancer Drug Screen. Data for tumor model L1210 Leukemia (intraperitoneal) in CD2F1 (CDF1) mice
Conditions: higher = longer survival
How it was run: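 Tumor-bearing mice (transplanted tumor) were split into treated and vehicle control groups, and the measured endpoint of each treated group was divided by that of its vehicle controls.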

[1] = endpoint: mean survival time, dose: 100.0 mg/kg/injection, schedule: Q04DX003 (ip), vehicle: saline with Tween-80
[2] = endpoint: mean survival time, dose: 200.0 mg/kg/injection, schedule: Q04DX003 (ip), vehicle: saline with Tween-80
[3] = endpoint: mean survival time, dose: 400.0 mg/kg/injection, schedule: Q04DX003 (ip), vehicle: saline with Tween-80
[4] = endpoint: mean survival time, dose: 100.0 mg/kg/injection, schedule: Q01DX009 (ip), vehicle: saline with Tween-80
[5] = endpoint: mean survival time, dose: 200.0 mg/kg/injection, schedule: Q01DX009 (ip), vehicle: saline with Tween-80
[6] = endpoint: mean survival time, dose: 400.0 mg/kg/injection, schedule: Q01DX009 (ip), vehicle: saline with Tween-80
[7] = endpoint: mean survival time, dose: 100.0 mg/kg/injection, schedule: Q01DX001 (ip), vehicle: saline
[8] = endpoint: mean survival time, dose: 200.0 mg/kg/injection, schedule: Q01DX001 (ip), vehicle: saline
[9] = endpoint: mean survival time, dose: 12.5 mg/kg/injection, schedule: Q01DX001 (ip), vehicle: saline with Tween-80

Compound: CC(N)CC(C)N (stereo not given)
- T/C (endpoint: mean survival time, dose: 100.0 mg/kg/injection, schedule: Q04DX002 (ip), vehicle: saline): 105 % of control
- T/C (endpoint: mean survival time, dose: 200.0 mg/kg/injection, schedule: Q04DX002 (ip), vehicle: saline): 109 % of control

Compound: FC(F)Cc1ccccc1
- T/C (endpoint: mean survival time, dose: 100.0 mg/kg/injection, schedule: Q01DX001 (ip), vehicle: saline with Tween-80): 100 % of control
- T/C (endpoint: mean survival time, dose: 200.0 mg/kg/injection, schedule: Q01DX001 (ip), vehicle: saline with Tween-80): 94 % of control
- T/C (endpoint: mean survival time, dose: 400.0 mg/kg/injection, schedule: Q01DX001 (ip), vehicle: saline with Tween-80): 100 % of control

Compound: C=C/C(C)=N/Nc1ccc([N+](=O)[O-])cc1[N+](=O)[O-]
- T/C [1]: 94 % of control
- T/C [2]: 95 % of control
- T/C [3]: 95 % of control

Compound: O=C1c2ccccc2C(=O)c2ccccc21
- T/C [4]: 93 % of control
- T/C [1]: 87 % of control
- T/C [5]: 100 % of control
- T/C [2]: 93 % of control
- T/C [6]: 94 % of control
- T/C [3]: 88 % of control

Compound: CN(C)CC(CN(C)C)C(=O)O
- T/C (endpoint: mean survival time, dose: 50.0 mg/kg/injection, schedule: Q01DX001 (ip), vehicle: saline): 103 % of control
- T/C [7]: 104 % of control
- T/C [8]: 108 % of control

Compound: O=C(c1ccccc1)C(CC[P+](c1ccccc1)(c1ccccc1)c1ccccc1)(OBr)c1ccccc1 (stereo not given)
- T/C (endpoint: mean survival time, dose: 6.25 mg/kg/injection, schedule: Q01DX001 (ip), vehicle: saline with Tween-80): 112 % of control
- T/C [9]: 97 % of control
- T/C (endpoint: mean survival time, dose: 25.0 mg/kg/injection, schedule: Q01DX001 (ip), vehicle: saline with Tween-80): 101 % of control

Compound: CCC1(O)C(=O)OCc2c1cc1n(c2=O)Cc2cc3cc([N+](=O)[O-])ccc3nc2-1 (stereo not given)
- T/C (endpoint: median survival time, dose: 3.63 mg/kg/injection, schedule: Q04DX002 (ip), vehicle: saline with Tween-80): 185 % of control
- T/C (endpoint: median survival time, dose: 7.25 mg/kg/injection, schedule: Q04DX002 (ip), vehicle: saline with Tween-80): 233 % of control
- T/C (endpoint: median survival time, dose: 7.5 mg/kg/injection, schedule: Q04DX002 (ip), vehicle: saline with Tween-80): 183 % of control
- T/C (endpoint: median survival time, dose: 15.5 mg/kg/injection, schedule: Q04DX002 (ip), vehicle: saline with Tween-80): 219 % of control and 103 % of control

Compound: ClC(Cl)(Cl)C(c1ccccc1)c1ccccc1
- T/C (endpoint: mean survival time, dose: 50.0 mg/kg/injection, schedule: Q01DX009 (ip), vehicle: Klucel (hydroxypropylcellulose) (HPC)): 96 % of control
- T/C (endpoint: mean survival time, dose: 100.0 mg/kg/injection, schedule: Q01DX009 (ip), vehicle: Klucel (hydroxypropylcellulose) (HPC)): 93 % of control
- T/C [1]: 101 % of control
- T/C (endpoint: mean survival time, dose: 200.0 mg/kg/injection, schedule: Q01DX009 (ip), vehicle: Klucel (hydroxypropylcellulose) (HPC)): 93 % of control
- T/C [2]: 95 % of control
- T/C [3]: 90 % of control

Compound: COc1oc(C2C/C(=C/C(C)=C/C(C)=C/C(C)=C/c3ccc([N+](=O)[O-])cc3)CO2)c(C)c(=O)c1C (stereo not given)
- T/C (endpoint: median survival time, dose: 0.25 mg/kg/injection, schedule: Q01DX009 (ip), vehicle: saline): 104 % of control and 108 % of control
- T/C (endpoint: median survival time, dose: 0.5 mg/kg/injection, schedule: Q01DX009 (ip), vehicle: saline): 118 % of control and 124 % of control and 112 % of control
- T/C (endpoint: median survival time, dose: 1.0 mg/kg/injection, schedule: Q01DX009 (ip), vehicle: saline): 118 % of control and 124 % of control
- T/C (endpoint: median survival time, dose: 2.0 mg/kg/injection, schedule: Q01DX009 (ip), vehicle: saline): 120 % of control
- T/C (endpoint: median survival time, dose: 4.0 mg/kg/injection, schedule: Q01DX009 (ip), vehicle: saline): 103 % of control

Compound: CCCNc1ncc(C(=O)O)c(=O)[nH]1
- T/C (endpoint: mean survival time, dose: 1.56 mg/kg/injection, schedule: Q01DX009 (ip), vehicle: saline sonified): 100 % of control
- T/C (endpoint: mean survival time, dose: 3.1 mg/kg/injection, schedule: Q01DX009 (ip), vehicle: saline sonified): 100 % of control
- T/C (endpoint: mean survival time, dose: 6.25 mg/kg/injection, schedule: Q01DX009 (ip), vehicle: saline sonified): 102 % of control

Compound: O=C(/C=C\c1ccnc2ccccc12)c1ccc([N+](=O)[O-])cc1
- T/C (endpoint: mean survival time, dose: 12.5 mg/kg/injection, schedule: Q01DX009 (ip), vehicle: other): 94 % of control
- T/C (endpoint: mean survival time, dose: 25.0 mg/kg/injection, schedule: Q01DX009 (ip), vehicle: other): 89 % of control
- T/C (endpoint: mean survival time, dose: 50.0 mg/kg/injection, schedule: Q01DX009 (ip), vehicle: other): 89 % of control
- T/C (endpoint: mean survival time, dose: 100.0 mg/kg/injection, schedule: Q01DX009 (ip), vehicle: other): 92 % of control
- T/C [1]: 97 % of control
- T/C (endpoint: mean survival time, dose: 200.0 mg/kg/injection, schedule: Q01DX009 (ip), vehicle: other): 97 % of control
- T/C [2]: 94 % of control
- T/C [3]: 91 % of control

Compound: COC(=O)C1=CCC=CC1
- T/C [4]: 104 % of control
- T/C [5]: 104 % of control

Compound: COC(=O)C1=CNC=C(C(=O)OC)C1c1ccccc1Cl
- T/C [1]: 95 % of control
- T/C [2]: 97 % of control
- T/C [3]: 89 % of control

Compound: COc1ccc(COC(=O)Oc2ccccc2)cc1OC
- T/C (endpoint: mean survival time, dose: 100.0 mg/kg/injection, schedule: Q04DX002 (ip), vehicle: saline with Tween-80): 93 % of control
- T/C (endpoint: mean survival time, dose: 200.0 mg/kg/injection, schedule: Q04DX002 (ip), vehicle: saline with Tween-80): 101 % of control
- T/C (endpoint: mean survival time, dose: 400.0 mg/kg/injection, schedule: Q04DX002 (ip), vehicle: saline with Tween-80): 96 % of control

Compound: CC1=CC=CNC1(N)Br (stereo not given)
- T/C [7]: 100 % of control
- T/C [8]: 104 % of control
- T/C (endpoint: mean survival time, dose: 400.0 mg/kg/injection, schedule: Q01DX001 (ip), vehicle: saline): 100 % of control

Compound: CC(=O)CC1C(CC(=O)O)C1(C)C (stereo not given)
- T/C (endpoint: mean survival time, dose: 100.0 mg/kg/injection, schedule: Q01DX001 (ip), vehicle: alcohol): 100 % of control
- T/C (endpoint: mean survival time, dose: 200.0 mg/kg/injection, schedule: Q01DX001 (ip), vehicle: alcohol): 102 % of control
- T/C (endpoint: mean survival time, dose: 400.0 mg/kg/injection, schedule: Q01DX001 (ip), vehicle: alcohol): 102 % of control

Compound: N#CCN(CC#N)CCN(CC#N)CC#N
- T/C [4]: 92 % of control
- T/C [1]: 97 % of control
- T/C [5]: 93 % of control
- T/C [2]: 97 % of control
- T/C [6]: 104 % of control
- T/C [3]: 97 % of control

Compound: N/C(CCSc1ccccc1N=Cc1ccccc1O)=N/O
- T/C (endpoint: mean survival time, dose: 3.13 mg/kg/injection, schedule: Q01DX009 (ip), vehicle: olive oil, sesame oil, peanut oil): 95 % of control
- T/C (endpoint: mean survival time, dose: 6.25 mg/kg/injection, schedule: Q01DX009 (ip), vehicle: olive oil, sesame oil, peanut oil): 94 % of control
- T/C (endpoint: mean survival time, dose: 12.5 mg/kg/injection, schedule: Q01DX009 (ip), vehicle: olive oil, sesame oil, peanut oil): 98 % of control
- T/C (endpoint: mean survival time, dose: 25.0 mg/kg/injection, schedule: Q01DX009 (ip), vehicle: olive oil, sesame oil, peanut oil): 100 % of control
- T/C (endpoint: mean survival time, dose: 50.0 mg/kg/injection, schedule: Q01DX009 (ip), vehicle: olive oil, sesame oil, peanut oil): 100 % of control

Compound: COc1ccc(C(O)c2ncccc2C)cc1OC (stereo not given)
- T/C (endpoint: mean survival time, dose: 12.5 mg/kg/injection, schedule: Q01DX009 (ip), vehicle: water): 100 % of control
- T/C (endpoint: mean survival time, dose: 25.0 mg/kg/injection, schedule: Q01DX009 (ip), vehicle: water): 98 % of control
- T/C (endpoint: mean survival time, dose: 50.0 mg/kg/injection, schedule: Q01DX009 (ip), vehicle: water): 104 % of control
- T/C (endpoint: mean survival time, dose: 100.0 mg/kg/injection, schedule: Q01DX009 (ip), vehicle: water): 100 % of control
- T/C (endpoint: mean survival time, dose: 200.0 mg/kg/injection, schedule: Q01DX009 (ip), vehicle: water): 95 % of control

Compound: NC(N)=NC(N)=Nc1cc(Cl)c(Cl)cc1Cl
- T/C [1]: 96 % of control
- T/C [2]: 96 % of control
- T/C [3]: 98 % of control

Compound: Nc1nc(-c2ccc([N+](=O)[O-])cc2)c([N+](=O)[O-])c(=O)[nH]1
- T/C (endpoint: mean survival time, dose: 3.13 mg/kg/injection, schedule: Q01DX009 (ip), vehicle: saline with Tween-80): 96 % of control
- T/C (endpoint: mean survival time, dose: 6.25 mg/kg/injection, schedule: Q01DX009 (ip), vehicle: saline with Tween-80): 95 % of control
- T/C [9]: 94 % of control
- T/C (endpoint: mean survival time, dose: 12.5 mg/kg/injection, schedule: Q01DX009 (ip), vehicle: saline with Tween-80): 95 % of control

Compound: CC[C@@]1(OC(=O)CN2CCNCC2)C(=O)OCc2c1cc1n(c2=O)Cc2cc3ccccc3nc2-1
- T/C (endpoint: median survival time, dose: 6.25 mg/kg/injection, schedule: Q04DX002 (ip), vehicle: water): 106 % of control
- T/C (endpoint: median survival time, dose: 12.5 mg/kg/injection, schedule: Q04DX002 (ip), vehicle: water): 116 % of control
- T/C (endpoint: median survival time, dose: 50.0 mg/kg/injection, schedule: Q04DX002 (ip), vehicle: water): 153 % of control and 170 % of control
- T/C (endpoint: median survival time, dose: 100.0 mg/kg/injection, schedule: Q04DX002 (ip), vehicle: water): 268 % of control

Compound: NCc1c(Cl)c(Cl)c(Cl)c(CN)c1Cl
- T/C (endpoint: mean survival time, dose: 50.0 mg/kg/injection, schedule: Q04DX003 (ip), vehicle: saline with Tween-80): 100 % of control
- T/C [1]: 100 % of control
- T/C [2]: 98 % of control

Compound: Clc1cc(N2CC2)nc(N2CC2)n1
- T/C (endpoint: mean survival time, dose: 0.94 mg/kg/injection, schedule: Q01DX009 (ip), vehicle: saline): 122 % of control
- T/C (endpoint: mean survival time, dose: 1.41 mg/kg/injection, schedule: Q01DX009 (ip), vehicle: saline): 150 % of control
- T/C (endpoint: mean survival time, dose: 1.6 mg/kg/injection, schedule: Q01DX009 (ip), vehicle: saline): 120 % of control
- T/C (endpoint: mean survival time, dose: 4.5 mg/kg/injection, schedule: Q01DX009 (ip), vehicle: saline): 168 % of control
- T/C (endpoint: mean survival time, dose: 7.5 mg/kg/injection, schedule: Q01DX009 (ip), vehicle: saline): 89 % of control
